The source made the active and inactive calls. The calls are words filed in the database; no cut-off is given here.
Tests used:
Pseudomonas aeruginosa [1] = experiment: Antibacterial activity against Pseudomonas aeruginosa PAO1 recorded every 10 mins for 15 hrs by broth micro dilution method; assay type: functional
Pseudomonas aeruginosa [2] = experiment: Inhibition of biofilm formation of Pseudomonas aeruginosa PAO1 at 20 uM after 24 hrs by crystal violet staining based assay relative to control; assay type: functional; conditions: PAO1, 24 h
Pseudomonas aeruginosa [3] = experiment: Inhibition of biofilm formation of Pseudomonas aeruginosa PAO1 after 24 hrs by crystal violet staining based assay; assay type: functional, organism-based
Pseudomonas aeruginosa [4] = experiment: Inhibition of biofilm formation of Pseudomonas aeruginosa PAO1 after 24 hrs by confocal laser scanning microscopy; assay type: functional, organism-based
[5] = biological target: T1, Anthranilate--CoA ligase (Pseudomonas aeruginosa (strain ATCC 15692 / DSM 22644 / CIP 104116 /JCM 14847 / LMG 12228 / 1C / PRS 101 / PAO1)) (UniProt Q9I4X3); experiment: Inhibition of Pseudomonas aeruginosa PAO1 GFP-fused quorum sensing pqsA measured every 15 mins up to 12 hrs by GFP reporter gene assay
T1 sequence (whole entry): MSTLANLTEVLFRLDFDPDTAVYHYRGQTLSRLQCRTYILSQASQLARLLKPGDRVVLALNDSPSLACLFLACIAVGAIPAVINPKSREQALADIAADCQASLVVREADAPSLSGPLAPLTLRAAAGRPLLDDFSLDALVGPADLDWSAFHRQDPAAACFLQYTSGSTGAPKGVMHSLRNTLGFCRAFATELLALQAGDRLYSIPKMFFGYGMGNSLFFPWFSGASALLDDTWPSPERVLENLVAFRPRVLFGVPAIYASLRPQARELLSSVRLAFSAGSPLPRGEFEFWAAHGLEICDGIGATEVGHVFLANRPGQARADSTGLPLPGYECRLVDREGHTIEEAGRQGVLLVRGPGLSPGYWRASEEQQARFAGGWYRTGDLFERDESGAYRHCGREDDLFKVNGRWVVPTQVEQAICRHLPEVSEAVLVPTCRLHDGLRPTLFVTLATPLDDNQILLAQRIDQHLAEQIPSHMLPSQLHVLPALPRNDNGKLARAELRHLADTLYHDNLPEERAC

Pseudomonas aeruginosa [6] = experiment: Antibacterial activity against Pseudomonas aeruginosa PAO1 up to 40 uM after 13 hrs by broth micro dilution method; assay type: functional, organism-based
[7] = biological target: 3-(3-hydroxydecanoyloxy)decanoate synthase (Pseudomonas aeruginosa (strain ATCC 15692 / PAO1 / 1C / PRS 101 / LMG12228)) (UniProt Q51559); experiment: Inhibition of Pseudomonas aeruginosa PAO1 GFP-fused quorum sensing rhlA up to 40 uM measured every 15 mins up to 12 hrs by GFP reporter gene assay
RAW264.7 [8] = experiment: Cytotoxicity against mouse RAW264.7 cells assessed as decrease in cell viability at 50 uM after 24 hrs by MTT assay; assay type: cell-based; conditions: raw264.7, 24 h
Pseudomonas aeruginosa [9] = experiment: Inhibition of biofilm formation of Pseudomonas aeruginosa PAO1 at 2.5 uM after 24 hrs by crystal violet staining based assay relative to control; assay type: functional; conditions: PAO1, 24 h
[10] = biological target: 3-(3-hydroxydecanoyloxy)decanoate synthase (Pseudomonas aeruginosa (strain ATCC 15692 / PAO1 / 1C / PRS 101 / LMG12228)) (UniProt Q51559); experiment: Inhibition of Pseudomonas aeruginosa PAO1 GFP-fused quorum sensing rhlA assessed as decrease in rhamnolipid lipid levels up to 40 uM measured after 30 mins
[11] = biological target: T1, Anthranilate--CoA ligase (Pseudomonas aeruginosa (strain ATCC 15692 / DSM 22644 / CIP 104116 /JCM 14847 / LMG 12228 / 1C / PRS 101 / PAO1)); experiment: Inhibition of Pseudomonas aeruginosa PAO1 GFP-fused quorum sensing pqsA assessed as decrease in pyocyanin production
[12] = biological target: Elastase (Pseudomonas aeruginosa (strain ATCC 15692 / PAO1 / 1C / PRS 101 / LMG12228)) (UniProt P14756); experiment: Inhibition of Pseudomonas aeruginosa PAO1 GFP-fused quorum sensing lasB up to 40 uM measured every 15 mins up to 12 hrs by GFP reporter gene assay
[13] = biological target: T1, Anthranilate--CoA ligase (Pseudomonas aeruginosa (strain ATCC 15692 / DSM 22644 / CIP 104116 /JCM 14847 / LMG 12228 / 1C / PRS 101 / PAO1)); experiment: Inhibition of Pseudomonas aeruginosa PAO1 GFP-fused quorum sensing pqsA assessed as decrease in pyocyanin production at 40 uM
[14] = Effect on GFP (unknown origin) protein expression in Pseudomonas aeruginosa PAO1 up to 40 uM after 12 hrs by GFP reporter gene assay; conditions: unidentified
RAW264.7 [15] = experiment: Cytotoxicity against mouse RAW264.7 cells assessed as decrease in cell viability at <= 2.5 uM after 24 hrs by MTT assay; assay type: cell-based; conditions: raw264.7, 24 h
[16] = biological target: Elastase (Pseudomonas aeruginosa (strain ATCC 15692 / PAO1 / 1C / PRS 101 / LMG12228)) (UniProt P14756); experiment: Inhibition of Pseudomonas aeruginosa PAO1 GFP-fused quorum sensing lasB assessed as decrease in elastase activity up to 40 uM incubated for 24 hrs recorded every 10 mins for 3 hrs

Chain of Elastase (Pseudomonas aeruginosa (strain ATCC 15692 / PAO1 / 1C / PRS 101 / LMG12228)) (P14756 198-498 limits assumed): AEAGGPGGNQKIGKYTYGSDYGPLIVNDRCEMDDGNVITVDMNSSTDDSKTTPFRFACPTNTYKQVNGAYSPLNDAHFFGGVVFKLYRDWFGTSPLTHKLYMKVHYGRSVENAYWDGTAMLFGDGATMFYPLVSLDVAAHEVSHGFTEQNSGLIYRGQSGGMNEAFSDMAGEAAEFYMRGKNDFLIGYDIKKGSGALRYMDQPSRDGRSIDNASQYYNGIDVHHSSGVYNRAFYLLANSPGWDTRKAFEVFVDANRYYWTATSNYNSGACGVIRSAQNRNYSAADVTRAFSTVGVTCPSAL

| SMILES | MIC (Pseudomonas aeruginosa [1]) [µM] | inhibition at 20 µM (Pseudomonas aeruginosa [2]) [%] | other results |
| --- | --- | --- | --- |
| Cc1cc(=O)c(O)c(C(O)c2ccc(C#CC3CCCCC3)cc2)o1 (stereo unspecified) | > 512 | 36.9 |  |
| Cc1cc(=O)c(O)c(Cc2ccc(F)cc2)o1 | > 512 | 30.5 |  |
| Cc1cc(=O)c(O)c(C(O)c2ccccc2F)o1 (stereo unspecified) | > 512 | 5.34 |  |
| CCCCCC(O)c1oc(C)cc(=O)c1O (stereo unspecified) | > 512 | 44.6 |  |
| Cc1cc(=O)c(O)c(C(O)c2ccc(C#Cc3ccc(F)cc3)cc2)o1 (stereo unspecified) | > 512 | 39.1 |  |
| Cc1cc(=O)c(O)c(C(O)c2ccc(CCc3ccccc3)cc2)o1 (stereo unspecified) | > 512 | 28.7 |  |
| Cc1cc(=O)c(O)c(Cc2ccc(C(F)(F)F)cc2)o1 | > 512 | 32.8 |  |
| CCCC(O)c1oc(C)cc(=O)c1O (stereo unspecified) | > 512 | 33.2 |  |
| Cc1cc(=O)c(O)c(C(O)c2ccc(C#Cc3ccccc3)cc2)o1 (stereo unspecified) | > 512 | 30.2 |  |
| COc1ccc(C#Cc2ccc(C(O)c3oc(C)cc(=O)c3O)cc2)cc1 (stereo unspecified) | > 512 | 26.3 |  |
| Cc1cc(=O)c(O)c(C(O)c2ccc(OCc3ccc([N+](=O)[O-])cc3)cc2)o1 (stereo unspecified) | > 512 | 22 |  |
| Cc1cc(=O)c(O)c(Cc2ccc(Cl)cc2)o1 | > 512 | 34.2 |  |
| Cc1cc(=O)c(O)c(C(O)c2ccc(/C=C/c3ccccc3)cc2)o1 (stereo unspecified) | > 512 | 35.1 |  |
| Cc1cc(=O)c(O)c(C(O)c2ccc(-n3ccnc3)cc2)o1 (stereo unspecified) | > 512 | 17.3 |  |
| Cc1cc(=O)c(O)c(C(O)c2ccc(-c3ccccc3)cc2)o1 (stereo unspecified) | > 512 | 3.26 |  |
| CCCCCCCC(O)c1oc(C)cc(=O)c1O (stereo unspecified) | > 512 | 15.8 |  |

| SMILES | MIC (Pseudomonas aeruginosa [1]) [µM] | inhibition at 20 µM (Pseudomonas aeruginosa [2]) [%] | other results |
| --- | --- | --- | --- |
| Cc1cc(=O)c(O)c(C(O)c2ccc(S(F)(F)(F)(F)F)cc2)o1 (stereo unspecified) | > 512 | 31.7 |  |
| Cc1cc(=O)c(O)c(C(O)c2ccc(-c3ccc([N+](=O)[O-])cc3)cc2)o1 (stereo unspecified) | > 512 | 48.5 |  |
| Cc1cc(=O)c(O)c(C(O)c2cccc(Br)c2)o1 (stereo unspecified) | > 512 | 5.67 |  |
| Cc1cc(=O)c(O)c(C(O)c2ccc(C#Cc3ccc(C(F)(F)F)cc3)cc2)o1 (stereo unspecified) | > 512 | 24.9 |  |
| CCCCCCC(O)c1oc(C)cc(=O)c1O (stereo unspecified) | > 512 | 41.5 |  |
| Cc1cc(=O)c(O)c(C(O)c2ccc([N+](=O)[O-])cc2)o1 (stereo unspecified) | > 512 | 51 | inhibition (Pseudomonas aeruginosa [3]): Dose-dependent effect; inhibition (Pseudomonas aeruginosa [4]): Dose-dependent effect; inhibition [5]: Dose-dependent effect; Activity (Pseudomonas aeruginosa [6]): inactive; inhibition [7]: inactive; Activity (RAW264.7 [8]): Toxic; inhibition at 2.5 µM (Pseudomonas aeruginosa [9]): 30%; inhibition [10]: inactive; inhibition [11]: Dose-dependent effect; inhibition [12]: inactive; inhibition [13]: 60%; Activity [14]: Non-Toxic; Activity (RAW264.7 [15]): Non-Toxic; inhibition [16]: inactive |
| Cc1cc(=O)c(O)c(C(O)c2ccc(C#Cc3ccccn3)cc2)o1 (stereo unspecified) | > 512 | 37.7 |  |
| Cc1cc(=O)c(O)c(C(O)c2cccc(F)c2)o1 (stereo unspecified) | > 512 | 12.3 |  |
| Cc1cc(=O)c(O)c(Cc2ccccc2)o1 | > 512 | 27.4 |  |
| Cc1cc(=O)c(O)c(C(O)c2ccc(OCc3ccccc3)cc2)o1 (stereo unspecified) | > 512 | 22 |  |
| CSCCC(O)c1oc(C)cc(=O)c1O (stereo unspecified) | > 512 | 25.9 |  |
| CCCCC(O)c1oc(C)cc(=O)c1O (stereo unspecified) | > 512 | 22 |  |
| Cc1cc(=O)c(O)c(C(O)c2ccccc2Br)o1 (stereo unspecified) | > 512 | 9.04 |  |
| Cc1cc(=O)c(O)c(C(O)c2ccc(Cc3ccccc3)cc2)o1 (stereo unspecified) | > 512 | 20.6 |  |
| Cc1cc(=O)c(O)c(C(O)c2ccc(C#Cc3cccc(F)c3)cc2)o1 (stereo unspecified) | > 512 | 31.5 |  |
